Laboratory results published in US9238603B1, “Batch process for the preparation of cis-2,2,4,4-tetramethylcyclobutane-1,3-diol” (EASTMAN CHEMICAL COMPANY, priority 2014, dated 2016).

Assay: cis/trans solubility ratio of 2,2,4,4-tetramethylcyclobutane-1,3-diol in a solvent
Assay type: physicochemical
Procedure: The definition of cis/trans 2,2,4,4-tetramethylcyclobutane-1,3-diol solubility ratio is also known to one of ordinary skill in the art; in one embodiment, the cis/trans 2,2,4,4-tetramethylcyclobutane-1,3-diol solubility ratio can be defined as the ratio of the cis isomer solubility limit divided by the trans isomer solubility limit at a given temperature for a given solvent or solvents. For example, the cis/trans solubility ratio in water at 80° C. is about 1.0. For MIBC, the cis/trans solubility ratio at 80° C. is about 0.74.

cis/trans solubility ratio (cis isomer solubility limit divided by trans isomer solubility limit) (in MIBC at 80° C.): about 0.74 | cis/trans solubility ratio (cis isomer solubility limit divided by trans isomer solubility limit) (in water at 80° C.): about 1.0
SMILES: CC1(C)C(O)C(C)(C)C1O (centres unmarked) [2,2,4,4-tetramethylcyclobutane-1,3-diol]
